# From US9375006B2, “5- halogenopyrazole benzofuranyl carboxamides” (BAYER CROPSCIENCE AG, priority 2012, dated 2016)
# Tests used:
# [1] = test system: Fusarium nivale (var. majus); experiment: Fusarium nivale (var. majus) test (wheat) / preventive; format: in vivo; settings: 500 ppm of active ingredient, evaluated 5 days after inoculation
# Source text: Solvent: 49 parts by weight of N,N-dimethylacetamide Emulsifier: 1 part by weight of alkylaryl polyglycol ether […] To test for preventive activity, young plants are sprayed with the preparation of active compound or active compound combination at the stated rate of application. After the spray coating has been dried, the plants are slightly injured by using a sandblast and afterwards they are sprayed with a conidia suspension of Fusarium nivale (var. majus). The plants are placed in the greenhouse under a translucent incubation cabinet at a temperature of approximately 10° C. and a relative atmospheric humidity of approximately 100%.
# Phakopsora pachyrhizi = experiment: In vivo Phakopsora test (soybeans) / preventive; settings: 10 ppm of active ingredient, evaluated 7 days after inoculation
# [2] = logP by HPLC on reversed phase columns (EEC directive 79/831 Annex V.A8); format: physicochemical; settings: method [a]: LC-MS at pH 2.7, 0.1% formic acid in water / acetonitrile
# Method: Measurement of log P values was performed according EEC directive 79/831 Annex V.A8 by HPLC (High Performance Liquid Chromatography) on reversed phase columns with the following methods: ^[a] Measurement of LC-MS was done at pH 2.7 with 0.1% formic acid in water and with acetonitrile (contains 0.1% formic acid) as eluent with a linear gradient from 10% acetonitrile to 95% acetonitrile. ^[b] Measurement with LC-MS was done at pH 7.8 with 0.001 molar ammonium hydrogen carbonate solution in water as eluent with a linear gradient from 10% acetonitrile to 95% acetonitrile.
# Botrytis cinerea = experiment: In vivo preventive test on Botrytis cinerea (grey mould), gherkin plants; settings: 500 ppm, preventive spray, grading 4 to 5 days after contamination
# Method: (§1) The active ingredients tested are prepared by homogenization in a mixture of acetone/tween/DMSO and then diluted with water to obtain the desired active material concentration.
# (§2) Gherkin plants (“Vert petit de Paris” variety), sown in starter cups on a 50/50 peat soil-pozzolana substrate and grown at 24° C., are treated at the Z11 cotyledon stage by spraying with the active ingredient prepared as described above. Plants, used as controls, are treated with the mixture of acetone/tween/DMSO/water not containing the active material.
# After 24 hours, the plants are contaminated by spraying the cotyledons with an aqueous suspension of cryopreserved Botrytis cinerea spores (50 000 spores per ml). The spores are suspended in a nutrient solution composed of 10 g/L of PDB, 50 g/L of D-Fructose, 2 g/L of NH4NO3 and 1 g/L of KH2PO4. The contaminated gherkin plants are incubated at 17° C. and at 90% relative humidity.
# Grading (% of efficacy) is carried out 4 to 5 days after the contamination, in comparison with the control plants.
# Pyrenophora teres = experiment: In vivo preventive test on Pyrenophora teres (net blotch on barley); settings: 500 ppm, barley plants, preventive spray, grading 14 days after contamination
# Method: Barley plants (“Plaisant” variety), sown in starter cups on a 50/50 peat soil-pozzolana substrate and grown at 22° C., are treated at the 1-leaf stage (10 cm height) by spraying with the active ingredient prepared as described above. Plants, used as controls, are treated with the mixture of acetone/tween/DMSO/water not containing the active material. After 24 hours, the plants are contaminated by spraying the leaves with an aqueous suspension of Pyrenophora teres spores (12 000 spores per ml). The spores are collected from a 12-day-old culture. The contaminated barley plants are incubated for 48 hours at 20° C. and at 100% relative humidity, and then for 12 days at 20° C. at 70-80% relative humidity. Grading (% of efficacy) is carried out 14 days after the contamination, in comparison with the control plants.
# Puccinia recondita = experiment: In vivo preventive test on Puccinia recondita (brown rust on wheat); settings: 500 ppm, wheat plants, preventive spray, grading 12 days after contamination
# Method: (§3) The active ingredients tested are prepared by homogenization in a mixture of acetone/tween/DMSO, and then diluted with water to obtain the desired active material concentration.
# Wheat plants (“Scipion” variety), sown in starter cups on a 50/50 peat soil-pozzolana substrate and grown at 22° C., are treated at the 1-leaf stage (10 cm height) by spraying with the active ingredient prepared as described above. Plants, used as controls, are treated with the mixture of acetone/tween/DMSO/water not containing the active material.
# (§4) After 24 hours, the plants are contaminated by spraying the leaves with an aqueous suspension of Puccinia condita spores (100 000 spores per ml). The spores are collected from an infected plant and are suspended in water containing 2.5 ml/l of Tween 80 at 10%. The contaminated wheat plants are incubated for 24 hours at 20° C. and at 100% relative humidity, and then for 10 days at 20° C. and at 70-80% relative humidity.
# (§5) Grading (% of efficacy) is carried out 12 days after the contamination, in comparison with the control plants.
# Septoria tritici = experiment: In vivo preventive test on Septoria tritici (leaf spot on wheat); settings: 500 ppm, wheat plants, preventive spray, grading 24 days after contamination
# Method: Wheat plants (“Scipion” variety), sown in starter cups on a 50/50 peat soil-pozzolana substrate and grown at 22° C., are treated at the 1-leaf stage (10 cm height) by spraying with the active ingredient prepared as described above. Plants, used as controls, are treated with the mixture of acetone/tween/DMSO/water not containing the active material. After 24 hours, the plants are contaminated by spraying the leaves with an aqueous suspension of cryopreserved Septoria tritici spores (500 000 spores per ml). The contaminated wheat plants are incubated for 72 hours at 18° C. and at 100% relative humidity, and then for 21 days at 90% relative humidity. Grading (% of efficacy) is carried out 24 days after the contamination, in comparison with the control plants.
# Sphaerotheca fuliginea = experiment: In vivo preventive test on Sphaerotheca fuliginea (powdery mildew on cucurbits); settings: 500 ppm, gherkin plants, preventive spray, grading 12 days after contamination
# Method: as §1, §2
# After 24 hours, the plants are contaminated by spraying the cotyledons with an aqueous suspension of Sphaerotheca fuliginea spores (100 000 spores per ml). The spores are collected from infected plants. The contaminated gherkin plants are incubated at about 20° C. and at 70-80% relative humidity.
# as §5
# Uromyces appendiculatus = experiment: In vivo preventive test on Uromyces appendiculatus (bean rust); settings: 500 ppm, bean plants, preventive spray, grading 11 days after contamination
# Method: as §3
# Bean plants (“Saxa” variety), sown in starter cups on a 50/50 peat soil-pozzolana substrate and grown at 24° C., are treated at the 2-leaf stage (9 cm height) by spraying with the active ingredient prepared as described above. Plants, used as controls, are treated with the mixture of acetone/tween/DMSO/water not containing the active material.
# as §4, with “of Uromyces appendiculatus” for “of Puccinia condita”, “spores (150” for “spores (100”, “from” for “from an”, “infected plants” for “infected plant”, “contaminated bean” for “contaminated wheat”
# Grading (% of efficacy) is carried out 11 days after the contamination, in comparison with the control plants.
SMILES,Eff. % [1] [%],Eff. % (Phakopsora pachyrhizi) [%],logP [2],Eff. % (Botrytis cinerea) [%],Eff. % (Pyrenophora teres) [%],Eff. % (Puccinia recondita) [%],Eff. % (Septoria tritici) [%],Eff. % (Sphaerotheca fuliginea) [%],Eff. % (Uromyces appendiculatus) [%]
Cn1nc(C(F)F)c(C(=O)Nc2cccc3c2C(C)(C)OC3(C)C)c1F [Example 1],92,,,,,,,,
Cn1nc(C(F)F)c(C(=O)Nc2cccc3c2C(C)(C)OC3(C)C)c1Cl [Example 2],86,96,,,,,,,
CCC1(CC)OC(C)c2c(NC(=O)c3c(C(F)F)nn(C)c3F)cccc21 (stereo not shown) [Example 13],,,3.27[a],100,83,100,79,100,100
